Counter-ions that a name gives are not always drawn. Like-named read-outs stand apart in the source and are kept apart here.
Columns and labels:
RelA = RelA (Homo sapiens, UniProt Q04206); experiment: DSE-FRET RelA–DNA binding inhibition; format: biochemical; design: Kinetic assay RelA Inhibition % ΔRFU(60 min-0 min) / RelA HTS % Inhibition / RelA Retest % Inhibition Run1 / RelA Retest % Inhibition Run2 / RelA Retest % Inhibition Avg. / Kinetic assay RelA % Inhibition ΔRFU(60 min-0 min): dose or concentration left out as unconfirmed
RelA, sequence (Q04206 19-306 limits assumed): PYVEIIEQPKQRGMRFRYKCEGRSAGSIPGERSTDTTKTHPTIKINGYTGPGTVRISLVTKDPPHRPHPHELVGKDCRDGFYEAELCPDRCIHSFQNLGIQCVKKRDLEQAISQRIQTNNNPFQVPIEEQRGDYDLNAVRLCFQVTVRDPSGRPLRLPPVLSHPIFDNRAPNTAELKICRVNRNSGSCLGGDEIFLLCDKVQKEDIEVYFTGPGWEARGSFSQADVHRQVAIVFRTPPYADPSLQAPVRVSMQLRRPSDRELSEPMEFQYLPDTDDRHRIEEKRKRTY

p52 = target: T1, p52 (Homo sapiens, UniProt Q00653); experiment: DSE-FRET p52–DNA binding inhibition; format: biochemical
T1 sequence (Q00653 1-454 limits assumed): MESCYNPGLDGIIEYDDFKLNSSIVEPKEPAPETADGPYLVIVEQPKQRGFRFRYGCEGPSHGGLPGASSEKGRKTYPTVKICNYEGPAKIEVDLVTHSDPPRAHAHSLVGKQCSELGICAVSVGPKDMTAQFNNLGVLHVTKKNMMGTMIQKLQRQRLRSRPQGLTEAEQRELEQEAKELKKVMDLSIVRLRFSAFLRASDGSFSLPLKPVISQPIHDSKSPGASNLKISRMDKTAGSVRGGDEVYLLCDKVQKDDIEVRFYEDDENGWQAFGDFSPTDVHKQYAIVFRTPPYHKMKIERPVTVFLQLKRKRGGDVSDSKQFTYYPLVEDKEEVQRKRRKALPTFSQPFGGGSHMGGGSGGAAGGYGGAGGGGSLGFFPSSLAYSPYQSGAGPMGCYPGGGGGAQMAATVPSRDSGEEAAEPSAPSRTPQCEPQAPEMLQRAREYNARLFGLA

[1] = HTS, known drugs, 10 µM, read-out: RelA HTS % Inhibition @ 10 µM
[2] = kinetic assay, 60 min-0 min, 10 µM, read-out: Kinetic assay @ 10 µM RelA % Inhibition ΔRFU(60 min-0 min)
[3] = retest, Run1, 10 µM, read-out: RelA Retest % Inhibition @ 10 µM Run1
[4] = retest, Run2, 10 µM, read-out: RelA Retest % Inhibition @ 10 µM Run2
[5] = retest, average of Run1 and Run2, 10 µM, read-out: RelA Retest % Inhibition @ 10 µM Avg.
[6] = HTS, known drugs, 10 µM, read-out: p52 HTS % Inhibition @ 10 µM
[7] = kinetic assay, 60 min-0 min, 10 µM, read-out: Kinetic assay @ 10 µM p52 % Inhibition ΔRFU(60 min-0 min)
[8] = retest, Run1, 10 µM, read-out: p52 Retest % Inhibition @ 10 µM Run1
[9] = retest, Run2, 10 µM, read-out: p52 Retest % Inhibition @ 10 µM Run2
[10] = retest, average of Run1 and Run2, 10 µM, read-out: p52 Retest % Inhibition @ 10 µM Avg.
[11] = HTS, 5 µg/mL, NPDepo hits, read-out: RelA HTS % Inhibition @ 5 µg/mL
[12] = Retest Run1, 5 µg/mL, read-out: RelA Retest % Inhibition @ 5 µg/mL Run1
[13] = Retest Run2, 5 µg/mL, read-out: RelA Retest % Inhibition @ 5 µg/mL Run2
[14] = Retest average of Run1 and Run2, 5 µg/mL, read-out: RelA Retest % Inhibition @ 5 µg/mL Avg.
[15] = kinetic assay, 5 µg/mL, ΔRFU 60 min-0 min, read-out: Kinetic assay @ 5 µg/mL RelA Inhibition % ΔRFU(60 min-0 min)
[16] = retest of known drugs, 1 = judged hit

SMILES | inhibition at 10 µM (RelA; [1]) [%] | inhibition at 10 µM (RelA; [2]) [%] | inhibition at 10 µM (RelA; [3]) [%] | inhibition at 10 µM (RelA; [4]) [%] | inhibition at 10 µM (RelA; [5]) [%] | inhibition at 10 µM (p52; [6]) [%] | inhibition at 10 µM (p52; [7]) [%] | inhibition at 10 µM (p52; [8]) [%] | inhibition at 10 µM (p52; [9]) [%] | inhibition at 10 µM (p52; [10]) [%] | other results
Cc1cc(-c2ccc(/N=N/c3ccc4c(S(=O)(=O)O)cc(S(=O)(=O)O)c(N)c4c3O)c(C)c2)ccc1/N=N/c1ccc2c(S(=O)(=O)O)cc(S(=O)(=O)O)c(N)c2c1O [EVANS BLUE] | 78.1 | 4.59 | 70.4 | 77.2 | 73.8 | 24 | 2.44 | 62.3 | 35.8 | 49 | 
CCN(CC)CCCC(C)Nc1c2ccc(Cl)cc2nc2ccc(OC)cc12 (stereo not drawn) [Quinacrine dihydrochloride dihydrate] |  |  |  |  |  |  |  |  |  |  | Kinetic assay RelA % Inhibition ΔRFU(60 min-0 min) (RelA; kinetic assay, 60 min-0 min): -17%; Kinetic assay p52 % Inhibition ΔRFU(60 min-0 min) (p52; kinetic assay, 60 min-0 min): -17%
O=C(O)c1cc(O)c2c(c1)[C@H]([C@H]1c3cc(C(=O)O)cc(O)c3C(=O)c3c(O[C@@H]4O[C@H](CO)[C@@H](O)[C@H](O)[C@H]4O)cccc31)c1cccc(O[C@@H]3O[C@H](CO)[C@@H](O)[C@H](O)[C@H]3O)c1C2=O [Sennoside A] |  |  |  |  |  |  |  |  |  |  | Hit Judgement of: RelA (RelA; 1 = judged hit after retest): 1; inhibition at 5 µg/mL (RelA; [11]): 85.4%; inhibition at 5 µg/mL (RelA; [12]): 88.7%; inhibition at 5 µg/mL (RelA; [13]): 100%; inhibition at 5 µg/mL (RelA; [14]): 94.6%; inhibition at 5 µg/mL (RelA; [15]): 31%; Hit Judgement of: p52 (p52; 1 = judged hit after retest): 1
CC(C)(O/N=C(\C(=O)N[C@@H]1C(=O)N2C(C(=O)[O-])=C(C[n+]3ccccc3)CS[C@H]12)c1csc(N)n1)C(=O)O [CEFTAZIDIME] | 96.9 | 94 | 91.9 | 106 | 98.9 | 98 | 92 | 78.9 | 110 | 94.2 | Hit Judgement of: RelA (RelA; [16]): 1; Hit Judgement of: p52 (p52; [16]): 1
O=C(O[C@H]1C[C@H]2CC[C@@H](C1)[N+]21CCCC1)C(O)(c1ccccc1)c1ccccc1 [TROSPIUM CHLORIDE] | 108 |  |  |  |  | 116 |  |  |  |  | 
COc1ccc2[nH]cc(C3=CCNCC3)c2c1.COc1ccc2[nH]cc(C3=CCNCC3)c2c1.O=C(O)CCC(=O)O [RU 24969 hemisuccinate] |  |  |  |  |  |  |  |  |  |  | Kinetic assay RelA % Inhibition ΔRFU(60 min-0 min) (RelA; kinetic assay, 60 min-0 min): -19%; Kinetic assay p52 % Inhibition ΔRFU(60 min-0 min) (p52; kinetic assay, 60 min-0 min): -22%
COC(=O)[C@@H]1c2cc3c(c(O)c2[C@@H](O[C@@H]2O[C@@H](C)[C@H](OC)[C@@](C)(OC)[C@H]2OC)C[C@]1(C)O)C(=O)c1c(O)cc2c(c1C3=O)O[C@@H]1O[C@@]2(C)[C@H](O)[C@@H](N(C)C)[C@@H]1O [Nogalamycin] |  |  |  |  |  |  |  |  |  |  | inhibition at 5 µg/mL (RelA; [11]): 128%; inhibition at 5 µg/mL (RelA; [12]): 138%; inhibition at 5 µg/mL (RelA; [13]): 146%; inhibition at 5 µg/mL (RelA; [14]): 142%; inhibition at 5 µg/mL (RelA; [15]): -20%; inhibition at 5 µg/mL (p52; HTS, 5 µg/mL, NPDepo hits, read-out: p52 HTS % Inhibition @ 5 µg/mL): 127%; inhibition at 5 µg/mL (p52; Retest Run1, 5 µg/mL, read-out: p52 Retest % Inhibition @ 5 µg/mL Run1): 132%; inhibition at 5 µg/mL (p52; Retest Run2, 5 µg/mL, read-out: p52 Retest % Inhibition @ 5 µg/mL Run2): 145%; inhibition at 5 µg/mL (p52; Retest average of Run1 and Run2, 5 µg/mL, read-out: p52 Retest % Inhibition @ 5 µg/mL Avg.): 139%; inhibition at 5 µg/mL (p52; kinetic assay, 5 µg/mL, ΔRFU 60 min-0 min, read-out: Kinetic assay @ 5 µg/mL p52 Inhibition % ΔRFU(60 min-0 min)): -13%
COc1cccc2c1C(=O)c1c(O)c3c(c(O)c1C2=O)C[C@@](O)(C(=O)CO)C[C@@H]3O[C@H]1C[C@H](N)[C@@H](O)[C@H](C)O1 [EPIRUBICIN HYDROCHLORIDE] | 82.2 | -11 | 77.3 | 88.4 | 82.9 | 88.4 | -11 | 77.2 | 88.8 | 83 | 

Now from value to molecule, other results behind:

inhibition at 10 µM (RelA; [1]) [%] | inhibition at 10 µM (RelA; [2]) [%] | inhibition at 10 µM (RelA; [3]) [%] | inhibition at 10 µM (RelA; [4]) [%] | inhibition at 10 µM (RelA; [5]) [%] | inhibition at 10 µM (p52; [6]) [%] | inhibition at 10 µM (p52; [7]) [%] | inhibition at 10 µM (p52; [8]) [%] | inhibition at 10 µM (p52; [9]) [%] | inhibition at 10 µM (p52; [10]) [%] | SMILES | other results
91.4 | -4.46 | 99.3 | 109 | 104 | 74.5 | -3.67 | 94.6 | 104 | 99.1 | CC[C@@]1(O)C(=O)OCc2c1cc1n(c2=O)Cc2cc3c(CN(C)C)c(O)ccc3nc2-1 [Topotecan] | 
101 | -27 | 88.6 | 99.1 | 93.9 | 103 | -31 | 88 | 99.8 | 93.9 | Cc1[nH]c(/C=C2\C(=O)Nc3ccc(S(=O)(=O)Cc4c(Cl)cccc4Cl)cc32)c(C)c1C(=O)N1CCC[C@@H]1CN1CCCC1 [PHA 665752] | 
